# Data reported in patent US8372843B2, “Quinolines useful as modulators of ION channels” (Vertex Pharmaceuticals Incorporated, priority 2005, dated 2013).
# Like-named read-outs stand apart in the source and are kept apart here.
# What was measured:
# NaV1.8 [1] = biological target: T1, NaV1.8 (Homo sapiens, UniProt Q9Y5Y9); assay: Activity against NaV1.8 channel (Table 4); type: cell-based
# Protocol: Compounds of the invention are useful as antagonists of voltage-gated sodium ion channels. Antagonist properties of test compounds were assessed as follows. Cells expressing the NaV of interest were placed into microtiter plates. After an incubation period, the cells were stained with fluorescent dyes sensitive to the transmembrane potential. The test compounds were added to the microtiter plate. The cells were stimulated with either a chemical or electrical means to evoke a NaV dependent membrane potential change from unblocked channels, which was detected and measured with trans-membrane potential-sensitive dyes. Antagonists were detected as a decreased membrane potential response to the stimulus. The optical membrane potential assay utilized voltage-sensitive FRET sensors described by Gonzalez and Tsien (See, Gonzalez, J. E. and R. Y. Tsien (1995) “Voltage sensing by fluorescence resonance energy transfer in single cells” Biophys J 69(4): 1272-80, and Gonzalez, J. E. and R. Y. Tsien (1997) “Improved indicators of cell membrane potential that use fluorescence resonance energy transfer” Chem Biol 4(4): 269-77) in combination with instrumentation for measuring fluorescence changes such as the Voltage/Ion Probe Reader (VIPR®) (See, Gonzalez, J. E., K. Oades, et al. (1999) “Cell-based assays and instrumentation for screening ion-channel targets” Drug Discov Today 4(9): 431-439). B) VIPR® optical membrane potential assay method with chemical stimulation
# 24 hours before the assay on VIPR, CHO cells endogenously expressing a NaV1.2 type voltage-gated NaV are seeded in 96-well poly-lysine coated plates at 60,000 cells per well. […] The cells are then incubated for 20-30 minutes. • 7) Once the incubation is complete, the cells are ready to be assayed on VIPR® with a sodium addback protocol. […]
# The following is an example of how NaV1.3 inhibition activity is measured using the optical membrane potential method#2. […]
# neuropathic pain = settings: in vivo; cited from earlier work
# NaV1.1 = NaV1.1 (Homo sapiens, UniProt P35498); settings: read-out: TTX IC50; cited from earlier work
# NaV1.2 = NaV1.2 (Homo sapiens, UniProt Q99250); settings: read-out: TTX IC50; cited from earlier work
# NaV1.9 = NaV1.9 (Homo sapiens, UniProt Q9UI33); settings: read-out: TTX IC50; cited from earlier work
# NaV1.6 = NaV1.6 (Homo sapiens, UniProt Q9UQD0); settings: read-out: TTX IC50; cited from earlier work
# NaV1.3 = NaV1.3 (Homo sapiens, UniProt Q9NY46); settings: read-out: TTX IC50; cited from earlier work
# NaV1.3, sequence (Q9NY46 whole entry, looked up): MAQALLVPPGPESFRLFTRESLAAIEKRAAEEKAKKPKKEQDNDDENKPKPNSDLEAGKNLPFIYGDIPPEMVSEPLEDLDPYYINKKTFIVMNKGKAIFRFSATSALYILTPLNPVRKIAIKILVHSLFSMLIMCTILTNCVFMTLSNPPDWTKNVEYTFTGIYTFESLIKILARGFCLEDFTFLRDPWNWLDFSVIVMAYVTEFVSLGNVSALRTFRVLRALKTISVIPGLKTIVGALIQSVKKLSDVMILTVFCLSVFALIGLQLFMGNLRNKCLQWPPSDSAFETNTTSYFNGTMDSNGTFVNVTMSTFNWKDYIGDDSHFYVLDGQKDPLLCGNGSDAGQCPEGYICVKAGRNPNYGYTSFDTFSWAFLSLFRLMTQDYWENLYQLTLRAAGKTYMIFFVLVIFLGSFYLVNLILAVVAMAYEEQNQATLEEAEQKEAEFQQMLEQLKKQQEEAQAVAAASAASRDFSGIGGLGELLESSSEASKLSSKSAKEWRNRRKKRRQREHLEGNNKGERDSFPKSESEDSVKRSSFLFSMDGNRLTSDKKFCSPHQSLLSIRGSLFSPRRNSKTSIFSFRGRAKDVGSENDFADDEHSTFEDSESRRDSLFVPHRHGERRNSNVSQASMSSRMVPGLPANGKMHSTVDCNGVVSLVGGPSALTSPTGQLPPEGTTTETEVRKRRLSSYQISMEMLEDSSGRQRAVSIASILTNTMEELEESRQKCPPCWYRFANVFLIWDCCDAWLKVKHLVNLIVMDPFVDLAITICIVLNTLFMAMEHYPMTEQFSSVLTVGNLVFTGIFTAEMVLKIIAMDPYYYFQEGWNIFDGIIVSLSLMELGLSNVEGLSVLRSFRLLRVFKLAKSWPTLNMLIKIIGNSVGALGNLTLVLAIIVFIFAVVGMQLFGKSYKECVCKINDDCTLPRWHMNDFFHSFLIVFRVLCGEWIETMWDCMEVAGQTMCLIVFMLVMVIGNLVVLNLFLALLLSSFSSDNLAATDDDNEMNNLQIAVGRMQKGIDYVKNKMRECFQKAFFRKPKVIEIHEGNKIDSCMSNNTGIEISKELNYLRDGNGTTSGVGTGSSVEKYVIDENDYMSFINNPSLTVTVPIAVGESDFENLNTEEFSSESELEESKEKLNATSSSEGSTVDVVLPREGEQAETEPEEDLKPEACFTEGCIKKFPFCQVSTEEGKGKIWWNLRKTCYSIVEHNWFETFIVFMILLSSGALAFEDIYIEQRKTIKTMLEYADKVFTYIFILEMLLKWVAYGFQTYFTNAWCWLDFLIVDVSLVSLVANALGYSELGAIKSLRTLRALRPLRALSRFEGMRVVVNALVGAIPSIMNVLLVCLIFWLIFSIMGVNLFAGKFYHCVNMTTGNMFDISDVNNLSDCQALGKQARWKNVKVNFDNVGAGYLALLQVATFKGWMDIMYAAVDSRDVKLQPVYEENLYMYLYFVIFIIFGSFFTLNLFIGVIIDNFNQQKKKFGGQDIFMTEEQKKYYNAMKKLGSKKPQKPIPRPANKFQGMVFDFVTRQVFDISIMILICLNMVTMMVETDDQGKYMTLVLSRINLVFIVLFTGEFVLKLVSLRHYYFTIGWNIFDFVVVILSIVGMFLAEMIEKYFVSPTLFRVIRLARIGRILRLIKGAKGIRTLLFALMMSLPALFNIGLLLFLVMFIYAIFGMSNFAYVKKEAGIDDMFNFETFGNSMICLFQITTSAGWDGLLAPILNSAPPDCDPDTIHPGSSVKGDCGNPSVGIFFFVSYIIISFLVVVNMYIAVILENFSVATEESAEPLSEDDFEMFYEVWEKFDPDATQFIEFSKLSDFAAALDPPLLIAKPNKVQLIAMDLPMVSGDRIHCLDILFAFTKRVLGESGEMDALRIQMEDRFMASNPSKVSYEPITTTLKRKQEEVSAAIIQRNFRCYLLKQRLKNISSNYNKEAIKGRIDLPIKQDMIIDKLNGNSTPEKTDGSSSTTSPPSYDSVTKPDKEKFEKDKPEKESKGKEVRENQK
# NaV1.8 [2] = biological target: T1, NaV1.8; settings: read-out: TTX IC50; cited from earlier work
# T1 sequence (Q9Y5Y9 whole entry, looked up): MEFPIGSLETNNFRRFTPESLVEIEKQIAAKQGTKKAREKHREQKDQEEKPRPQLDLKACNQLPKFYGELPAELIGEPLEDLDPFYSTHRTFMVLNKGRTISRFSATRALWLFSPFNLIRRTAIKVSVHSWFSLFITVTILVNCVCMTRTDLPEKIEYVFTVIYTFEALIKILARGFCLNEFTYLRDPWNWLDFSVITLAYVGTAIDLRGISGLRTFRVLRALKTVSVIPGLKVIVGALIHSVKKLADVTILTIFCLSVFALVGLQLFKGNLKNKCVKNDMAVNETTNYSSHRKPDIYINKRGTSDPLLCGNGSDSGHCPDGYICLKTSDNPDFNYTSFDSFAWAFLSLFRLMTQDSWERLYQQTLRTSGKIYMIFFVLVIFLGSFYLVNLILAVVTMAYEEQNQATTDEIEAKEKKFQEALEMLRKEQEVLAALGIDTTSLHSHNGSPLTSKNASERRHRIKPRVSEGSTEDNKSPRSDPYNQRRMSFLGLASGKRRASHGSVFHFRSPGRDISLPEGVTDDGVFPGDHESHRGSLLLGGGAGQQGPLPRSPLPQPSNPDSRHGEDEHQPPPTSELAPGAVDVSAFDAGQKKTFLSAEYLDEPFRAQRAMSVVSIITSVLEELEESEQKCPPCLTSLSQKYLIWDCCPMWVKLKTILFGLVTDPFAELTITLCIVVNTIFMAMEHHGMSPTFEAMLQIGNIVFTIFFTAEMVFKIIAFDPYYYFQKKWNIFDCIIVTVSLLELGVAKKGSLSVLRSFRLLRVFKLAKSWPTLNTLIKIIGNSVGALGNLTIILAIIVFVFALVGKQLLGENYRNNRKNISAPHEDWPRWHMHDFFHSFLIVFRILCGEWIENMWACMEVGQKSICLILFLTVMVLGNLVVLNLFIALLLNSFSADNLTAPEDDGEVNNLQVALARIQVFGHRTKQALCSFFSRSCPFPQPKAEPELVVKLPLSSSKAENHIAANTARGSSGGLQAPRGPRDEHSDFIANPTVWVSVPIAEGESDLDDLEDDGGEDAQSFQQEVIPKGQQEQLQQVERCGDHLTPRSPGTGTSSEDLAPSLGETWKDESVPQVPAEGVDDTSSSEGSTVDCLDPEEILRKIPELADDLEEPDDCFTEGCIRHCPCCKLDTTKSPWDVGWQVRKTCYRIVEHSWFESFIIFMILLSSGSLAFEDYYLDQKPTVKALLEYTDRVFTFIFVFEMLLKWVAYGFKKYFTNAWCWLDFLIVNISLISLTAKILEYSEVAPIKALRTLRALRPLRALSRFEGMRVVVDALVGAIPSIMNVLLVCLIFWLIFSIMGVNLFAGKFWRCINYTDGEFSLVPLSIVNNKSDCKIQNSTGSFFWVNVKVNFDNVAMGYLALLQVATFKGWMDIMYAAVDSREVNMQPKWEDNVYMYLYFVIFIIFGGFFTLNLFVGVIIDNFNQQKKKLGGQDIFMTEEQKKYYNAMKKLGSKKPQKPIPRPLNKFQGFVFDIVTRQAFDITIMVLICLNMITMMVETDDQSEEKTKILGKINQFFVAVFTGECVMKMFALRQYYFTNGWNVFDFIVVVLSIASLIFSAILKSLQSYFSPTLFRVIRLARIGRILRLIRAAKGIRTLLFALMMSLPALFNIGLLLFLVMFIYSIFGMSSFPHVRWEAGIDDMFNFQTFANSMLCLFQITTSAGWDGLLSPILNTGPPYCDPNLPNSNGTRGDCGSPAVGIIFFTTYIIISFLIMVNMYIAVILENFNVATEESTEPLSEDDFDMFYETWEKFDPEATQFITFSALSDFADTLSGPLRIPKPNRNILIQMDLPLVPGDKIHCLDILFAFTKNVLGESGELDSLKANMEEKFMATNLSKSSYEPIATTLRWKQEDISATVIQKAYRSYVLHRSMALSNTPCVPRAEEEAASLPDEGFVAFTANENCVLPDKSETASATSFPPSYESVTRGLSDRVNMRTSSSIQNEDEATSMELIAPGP
smiles,measurement,setting,value
"CC(C)COC(=O)NC1CCN(c2nc(-c3ccccc3O)cc3ccccc23)CC1 [Compound 1, Isobutyl 1-(3-(2-hydroxyphenyl)isoquinolin-1-yl)piperidin-4-ylcarbamate]",IC50,NaV1.8 [1],10000 to 15000 nM
"CC(C)COC(=O)N1CCN(c2nc(-c3ccccc3O)cc3ccccc23)CC1 [Compound 3, Isobutyl 4-(3-(2-hydroxyphenyl)isoquinolin-1-yl)piperazine-1-carboxylate]",IC50,NaV1.8 [1],> 15000 nM
"CC(C)COC(=O)N1CCN(c2nc(-c3ccccc3C(F)F)cc3ccccc23)CC1 [Compound 4, Isobutyl 4-(3-(2-(difluoromethyl)phenyl)isoquinolin-1-yl)piperazine-1-carboxylate]",IC50,NaV1.8 [1],> 15000 nM
NCC1(CC(=O)O)CCCCC1 [Gabapentin],share of patients in whom it works,neuropathic pain,60%
"NC1=N[C@H](O)[C@H]2[C@H]3O[C@]4(O)O[C@@H]([C@@H](O)[C@@]2(N1)[C@@H]4O)[C@]3(O)CO [TTX, tetrodotoxin]",IC50,NaV1.1,10 nM
same,IC50,NaV1.2,10 nM
same,IC50,NaV1.9,1000 nM
same,IC50,NaV1.6,6 nM
same,IC50,NaV1.3,15 nM
same,IC50,NaV1.8 [2],> 50000 nM
